Measurements reported in patent publication EP0740650B1, “CODRUGS AS A METHOD OF CONTROLLED DRUG DELIVERY” (priority 1994, dated 1995).

Key:
[1] = physchem; assay type: physicochemical; conditions: phosphate buffer
Description: (§1) A stock solution was prepared by dissolving 10 mg of 5FU/TRI in 10 ml acetonitrile. This was then added to a series of phosphate buffers at pH 3, 5, 6.4, 7.4 and 8.4 at 37°C to give final concentrations of 100 ug/ml. Care was taken to ensure that these solutions were indeed solutions and not suspensions. Samples were periodically removed and assayed by HPLC as described below. Enzymatic hydrolysis was determine in a similar way using pooled serum from 3 volunteers. The assay procedure used distinguished between TRI and 5FU/TRI. 5FU was assayed under different conditions. HPLC Assays: Samples of buffer containing codrug and steroids were assayed by HPLC using a fully automated Hitachi system with a C-18 reverse phase column (25 cm × 4 mm x 5 µm) and uv detection. The mobile phase was 40% acetonitrile buffered to 4.0 with 0.02% sodium acetate. The flow rate was 1.0 ml/min and detection was at 238 nm. Under these conditions the retention time of the codrug 5FU/TRI was 17 minutes while triamcinolone acetonide eluted at 9 minutes. Quantitation limits were 0.3 and 0.5 ug/ml, respectively. […] For 5FU an Applied Biosystems HPLC system was used with a C-18 column reverse phase column (25 cm x 4 mm x 5 µm) and 0.02% sodium acetate buffer mobile phase (Ph 4.0). The flow rate was 1.0 ml/min and detection was by uv at 266 nm. Under these condition the retention time was 6.5 minutes and the detection limit 0.2 ug/ml.

[2] = in vitro; assay type: in vitro ADME; conditions: human, serum, t½
Description: as §1, with “Under these condition the retention time was 6.5 minutes and the detection limit 0.2 ug/ml.” left out
To quantitate 5FU it was necessary to remove acetonitrile before analysis. […]

[3] = In vitro release from 2 mg codrug pellets in phosphate buffer (Example 3); assay type: physicochemical
Description: Two mg pellets of the codrug 5FU/TRI were prepared in a 1.5 mm pellet press using a modified Parr Instrument Press. Pellets were then immersed in 5 ml phosphate buffer (Ph 7.4, 37 °C) and 300 µl samples removed each day for 6 days; there immediately replaced was replaced 300 µl of buffer. Samples were assayed by HPLC for 5FU/TRI, triamcinolone acetonide and 5FU. After 6 days buffer was completely replaced, to maintain sink conditions, and sampling continued.

[4] = Vitreous concentrations after intravitreal implantation of codrug pellets (Example 4); assay type: in vivo, New Zealand white rabbits
Description: Two mg pellets of the codrug 5FU/TRI were prepared using a 1.5 mm press. These pellets were then fixed onto 6-0 nylon suture using intraocular lens grade silicone. silicone covered the base of the pellets providing a platform for suture attachment. Alternatively a solution of 2% or 5% polylactic acid was used. Pellets attached by both methods were implanted into the vitreous of 8 New Zealand white rabbits through a small incision through the sclera. For each type of device, two animals were killed after 1, 2, 3, and 4 weeks and the vitreous and aqueous obtained from the frozen sphere. Before death animals were examined with a slit lamp. […] Pellets were then implanted into the vitreous of 8 New Zealand White rabbits in a similar manner to that described in 3b except that sclerotomy sites were smaller in this case (2.5 mm). […] HPLC analysis was then performed on tissue samples and explanted devices to determine the concentrations of 5FU, triamcinolone acetonide and intact 5FU/TRI.

[5] = tested on: extraocular muscle (EOM) surgery in rabbits; test: Scar reduction after extraocular muscle surgery with codrug implants (Example 5); assay type: in vivo
Description: After the IRM was sewn back into its insertion site, four 2 mg codrug implants were inserted between sclera and muscle in the right eye, while the left was used as a control. Bioerodible codrug implants releasing 5FU and TRI over 6 weeks were prepared. Devices release equimolar amounds of 5FU and TRI. Animals were sacrificed at 1, 2 and 3 weeks and eyes eviscerated. Specimens were prepared and stained with H&E. The scar thickness and cellular infiltrate were determined quantitatively using a Bioscan image analysis program.

[6] = Subconjunctival codrug devices: release from explanted devices, toxicity (Example 6); assay type: in vivo, rabbits; conditions: rabbit
Description: Codrug devices were prepared as flat discs 2.5 mm in diameter weighing 5 mg. Each device contained approximately 3.7 mg of TRI and 1.3 mg of 5FU and were composed of over 97% active substance. Devices were implanted subconjunctivally in each eye of ten rabbits (figure 2). Toxicity and inflammation were determined by weekly slit lamp examinations and electroretinograms (ERGs). Animals were sacrificed after 3, 7, 10 and 14 days and eyes eviscerated. After freezing at -70°C devices were removed for determination of residual drugs and the complete vitreous and aqueous dissected from the ice ball to determine the concentration of SFU and TRI. Two animals were used for histology and were sacrificed 6 weeks after implantation.

[7] = tested on: posterior capsular opacification (PCO); test: Posterior capsular opacification after cataract extraction and IOL implantation with codrug pellet (Example 7); assay type: in vivo, New Zealand White rabbits
Description: Codrug pellets were prepared that gave pseudo zero order release of 5FU and TRI in an equimolar ratio over 6 weeks. […] 1.5 mm pellets containing 1.5 mg of TRI and 0.5 mg 5FU were prepared and fixed to the haptics of IOLs using the bioerodible polybutyl cyanoacrylate. This polymer is soaked into the pellet forming a codrug/cyanoacrylate matrix as it dried (figure 3). 16 New Zealand White rabbits were used in this study, one eye (control) received a polymethyl methacrylate intraocular lens (IOL) (Chiron Intraoptics) while the other received an IOL with codrug. Eyes were examined regularly by slit lamp and PCO scored from 0 to 4+. Retinal function was determined by electroretinogram (ERG) before implantation and before sacrifice. Animals were sacrificed after 4, 8, 12 and 16 weeks; eyes were removed and fixed in formalin. Photographs of posterior capsule were projected onto a grid and the percentage of PCO calculated.

[8] = In vitro release from 1.5 mm codrug implants in phosphate buffer (Example 8); assay type: physicochemical; conditions: 1.5 mm implant, phosphate buffer pH 7.4
Description: (§2) Bioerodible codrug implants were prepared 1.5 mm in diameter and attached to 6-0 nylon suture. Implants were immersed in 5 ml of phosphate buffer (pH 7.4) and samples periodically removed for HPLC assay to determine the release of both 5FU and TRI. Similar implants were then inserted into the vitreous of 14 New Zealand White rabbits (figure 4). Toxicity was assess by electroretinogram and slit lamp examination in all animals. Histopathologic examination was performed on four animals. Ten animals were used for pharmacokinetics; two animals were sacrificed 1, 2, 3, 4 and 5 weeks after implantation. Eyes were enucleated, devices removed and both vitreous and aqueous obtained. All samples were assayed by HPLC. Five animals received actual devices in one eye and placebo implants in contralateral eyes. These were sacrificed after 3 and 6 weeks for histopathologic examination.

[9] = Intravitreal codrug implants: pharmacokinetics and toxicity (Example 8); assay type: in vivo, New Zealand White rabbits; conditions: intravitreal implant
Description: as §2

[10] = tested on: proliferative vitreoretinopathy (PVR); test: Intravitreal pellet after vitrectomy, proliferative vitreoretinopathy; assay type: in vivo; conditions: pellet implanted intravitreally after vitrectomy; animal studies proceeding
[11] = immersed in pH 7.4 buffer
[12] = physchem; conditions: buffer
[13] = Stability of acetazolamide sulfocarbamate derivative in buffer solution; assay type: physicochemical

SMILES: CC1(C)O[C@@H]2C[C@H]3[C@@H]4CCC5=CC(=O)C=C[C@]5(C)[C@@]4(F)[C@@H](O)C[C@]3(C)[C@]2(C(=O)COC(=O)OCn2cc(F)c(=O)[nH]c2=O)O1 [5FU/TRI]
- half-life ([1]; pH 3): 204 h
- half-life ([1]; pH 5): 12.7 h
- half-life ([1]; pH 6.4): 1.3 h
- half-life ([1]; pH 7.4): 0.235 h
- half-life ([1]; pH 8.4): 0.163 h
- half-life ([2]; half-life): < 10 min
- half-life [2]: 8.8 min
- fraction of triamcinolone acetonide and 5FU released while rates were maintained ([3]; 2 mg pellet, phosphate buffer pH 7.4): over 60%
- Release of 5FU ([3]; 2 mg pellet, phosphate buffer pH 7.4, 37 °C): 0.4 ± 0.06 µg/h
- intact codrug in the receptor medium ([3]; 2 mg pellet, phosphate buffer pH 7.4, 37 °C, HPLC detection limit 0.5 ug/ml): No intact codrug was detected
- mean release rate of triamcinolone acetonide ([3]; 2 mg pellet, phosphate buffer pH 7.4, 37 °C, pseudo zero order): 1.4 ± 0.3 µg/h
- mean ratio of 5FU to triamcinolone acetonide concentration (ug/ml) in the receptor solution ([3]; all time points (equimolar release)): 3.40 +/- 0.15
- intact codrug in the vitreous ([4]; 2 mg pellets implanted in rabbit vitreous): No intact codrug was detected
- intravitreal levels of triamcinolone ([4]; rabbit vitreous, week 5): below the detection limit of the HPLC
- number of inflammatory cells in a defined area of tissue ([5]; 40 µm^2 area, control > 300): < 35
- scar thickness ([5]; drug treated eyes (controls 35 µm)): 7 µm
- decrease in scar thickness compared to controls ([5]; four 2 mg implants between sclera and muscle, rabbit): 80%
- ERGs ([6]; in vivo): normal
- release rate of 5FU and TRI from explanted devices (pseudo zero order) ([6]; in vivo): 9 +/-1 % per day
- toxicity or inflammation around the implantation site ([6]; subconjunctival devices, slit lamp): no evidence of toxicity or inflammation
- tolerability (ERG and histopathologic data) ([7]; codrug pellet on IOL haptic, rabbit capsular bag): well tolerated with no indication of a toxic or inflammatory response
- PCO by slit lamp examination, study versus control eyes ([7]; p< 0.001): statistically significant decrease in PCO
- PCO assessed using a grid ([7]; p< 0.03 by 8 weeks): arrest of opacification
- release of 5FU in buffer [8]: 0.3 µg/h
- release of TRI in buffer [8]: 1.4 µg/h
- Levels of TRI and 5FU in the aqueous ([9]; rabbit): too low to be detected
- tolerability in rabbit eyes ([9]; ERG, slit lamp, histopathology): well tolerated in rabbit eyes with no indication of toxicity or inflammation
- occurrence of PVR [10]: reduce the occurrence of PVR
- release of TRI and 5FU from compressed pellet [11]: slowly releases both TRI and 5FU over an extended period of time (months)
- half-life ([12]; pH 3): > 48 h
- half-life ([12]; pH 7.4): < 0.05 h

SMILES: CC(=O)Nc1nnc(S(=O)(=O)NC(=O)O[C@@H]2C[C@H](C)CC[C@H]2C(C)C)s1 [product 35]
- stability in buffer solution [13]: appears to stable in buffer solution
